Source: ChEMBL document CHEMBL1123205, “Synthesis and antihypertensive activity of a series of 4-amino-6,7-dimethoxyquinazoline derivatives” (1986)

Columns and labels:
Type in all cases: functional
Rattus norvegicus [1] = assay: Antihypertensive activity determined as percent fall in blood pressure after 4 hours in spontaneously hypertensive rats administered with 10 mg/kg, (po)
Rattus norvegicus [2] = assay: Antihypertensive activity determined as percent fall in blood pressure after 2 hr in spontaneously hypertensive rats administered with 10 mg/kg (po)
Rattus norvegicus [3] = assay: Antihypertensive activity determined as percent fall in blood pressure after 4 hours in spontaneously hypertensive rats administered with 3 mg/kg, (po)
Rattus norvegicus [4] = assay: Antihypertensive activity determined as percent fall in blood pressure after 2 hr in spontaneously hypertensive rats administered with 3 mg/kg (po)

Row | SMILES | Activity (Rattus norvegicus [1]) | Activity (Rattus norvegicus [2]) | Activity (Rattus norvegicus [3]) | Activity (Rattus norvegicus [4])
1 | COc1cc2nc(N(C)CCCNC(=O)C3Cc4ccccc4O3)nc(N)c2cc1OC.Cl (configuration not stated) | -19% | -22% |  | 
2 | COc1cc2nc(N(C)CCCN(C)C(=O)c3cc(OC)c(OC)c(OC)c3)nc(N)c2cc1OC.Cl | -6% | -11% |  | 
3 | COc1cc(OC)cc(C(=O)N(C)CCCN(C)c2nc(N)c3cc(OC)c(OC)cc3n2)c1.Cl | -2% | -6% |  | 
4 | COc1cc2nc(N(C)CCCNC(=O)C3COc4ccccc4O3)nc(N)c2cc1OC.Cl (configuration not stated) | -6% | 2% |  | 
5 | COc1cc2nc(NCCCN(C)C(=O)C3CCCO3)nc(N)c2cc1OC.Cl (configuration not stated) | -6% | -8% |  | 
6 | COc1cc2nc(N(C)CCCNC(=O)C3CC3)nc(N)c2cc1OC.Cl | -12% | -19% |  | 
7 | COc1cc2nc(N(C)CCCNC(=O)C3CCOCC3)nc(N)c2cc1OC | -7% | -27% |  | 
8 | COc1cc2nc(N(C)CCCNC(=O)C3CCOC3)nc(N)c2cc1OC.Cl (configuration not stated) | -10% | -24% |  | 
9 | COc1cc2nc(N(C)CCCN(CC(C)C)C(=O)c3ccccc3)nc(N)c2cc1OC.Cl | 6% | 0% |  | 
10 | COc1cc2nc(N(C)CCCNC(=O)/C=C/c3ccccc3)nc(N)c2cc1OC.Cl | 3% | 0% |  | 
11 | COc1cc2nc(N(C)CCCN(C)C(=O)c3nnc(SC)o3)nc(N)c2cc1OC.Cl | -6% | -20% |  | 
12 | CCN(CCCN(C)C(=O)c1ccccc1)c1nc(N)c2cc(OC)c(OC)cc2n1.Cl | -12% | -16% |  | 
13 | COc1cc2nc(N(C)CCCN(C)C(=O)c3ccco3)nc(N)c2cc1OC.Cl | -20% | -24% |  | 
14 | COc1cc2nc(N(C)CCCCN(C)C(=O)c3ccccc3)nc(N)c2cc1OC.Cl | -12% | -21% |  | 
15 | COc1cc2nc(N(C)CCCN(C)C(=O)C3CCCO3)nc(N)c2cc1OC.Cl (configuration not stated) | -7% | -14% |  | 
16 | CCN(CCCN(CC)c1nc(N)c2cc(OC)c(OC)cc2n1)C(=O)c1ccco1.Cl | -11% | -16% |  | 
17 | COc1cc2nc(N(C)CCCNC(=O)c3ccco3)nc(N)c2cc1OC.Cl | -17% | -20% |  | 
18 | COc1cc2nc(N(C)CCN(C)C(=O)c3ccccc3)nc(N)c2cc1OC | 0% | 0% |  | 
19 | COc1cc2nc(N(C)CCCNC(=O)C3CCCC3)nc(N)c2cc1OC.Cl | -20% | -30% |  | 
20 | COc1cc2nc(N(C)CCCN(C)C(=O)c3cccnc3)nc(N)c2cc1OC.Cl | -9% | -5% |  | 
21 | COc1cccc(C(=O)N(C)CCCN(C)c2nc(N)c3cc(OC)c(OC)cc3n2)c1.Cl | 0% | -12% |  | 
22 | COc1cc2nc(N(C)CCN(C)C(=O)c3ccco3)nc(N)c2cc1OC.Cl | 0% | 0% |  | 
23 | COc1cc2nc(N(C)CCCN(C)C(=O)c3ccccc3)nc(N)c2cc1OC.Cl | -15% | -23% |  | 
24 | COc1cc2nc(N(C)CCCNC(=O)c3ccccc3)nc(N)c2cc1OC.Cl | -23% | -31% |  | 
25 | COc1cc2nc(N(C)CCCNC(=O)C3CCCO3)nc(N)c2cc1OC.Cl (configuration not stated) [ALFUZOSIN HYDROCHLORIDE] | -24% | -34% |  | 
26 | COc1cc2nc(NCCCNC(=O)c3ccccc3)nc(N)c2cc1OC.Cl | -7% | -9% |  | 
27 | COc1cc2nc(N3CCN(C(=O)c4ccco4)CC3)nc(N)c2cc1OC.Cl [PRAZOSIN HYDROCHLORIDE] | -35% | -37% | -25% | -30%
28 | CCN(CCCN(CC)c1nc(N)c2cc(OC)c(OC)cc2n1)C(=O)c1ccccc1.Cl | -5% | -1% |  | 
29 | COc1cc2nc(N(C)CCCNC(=O)c3cc4ccccc4o3)nc(N)c2cc1OC.Cl | 0% | 0% |  | 
30 | COc1cc2nc(N(C)CCCN(C)C(=O)c3cccc(C)c3)nc(N)c2cc1OC.Cl | 0% | -10% |  | 
